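Assay format: 96-well plates, 48-hour exposure. GI50 = concentration required for 50% inhibition of growth.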 Calls of active or inactive are those of the source. Cut-off read from the data, not from the text of the source: active = GI50 up to about 1.1 µM and inactive = higher.
Columns and labels:
Experiment in all cases: NCI tumour cell line growth inhibition, 48 h
[1] = tested on: SW-620
[2] = tested on: LOX IMVI
[3] = tested on: U-251
[4] = tested on: MDA-MB-231
[5] = tested on: SF-295
[6] = tested on: HOP-92
[7] = tested on: EKVX
[8] = tested on: UO-31
[9] = tested on: DU-145
[10] = tested on: MCF7
[11] = tested on: PC-3
[12] = tested on: SNB-75
[13] = tested on: CCRF-CEM
[14] = tested on: RPMI-8226
[15] = tested on: UACC-257
[16] = tested on: ACHN
[17] = tested on: NCI-H226
[18] = tested on: OVCAR-5
[19] = tested on: OVCAR-8
[20] = tested on: NCI-H460
[21] = tested on: KM12
[22] = tested on: SK-OV-3
[23] = tested on: NCI-H23
[24] = tested on: Hs-578T
[25] = tested on: UACC-62
[26] = tested on: SNB-19
[27] = tested on: A498
[28] = tested on: HOP-62
[29] = tested on: SK-MEL-5
[30] = tested on: OVCAR-3
[31] = tested on: 786-0
[32] = tested on: COLO 205
[33] = tested on: SN12C
[34] = tested on: K562
[35] = tested on: Malme-3M
[36] = tested on: SK-MEL-2
[37] = tested on: SF-268
[38] = tested on: HCC 2998
[39] = tested on: TK-10
[40] = tested on: MDA-MB-435
[41] = tested on: BT-549
[42] = tested on: HT-29
[43] = tested on: T47D
[44] = tested on: HCT-116
[45] = tested on: CAKI-1
[46] = tested on: RXF 393
[47] = tested on: HL-60
[48] = tested on: SK-MEL-28
[49] = tested on: M14
[50] = tested on: MDA-N
[51] = tested on: HCT-15
[52] = tested on: SR
[53] = tested on: MOLT-4
[54] = tested on: SF-539
[55] = tested on: OVCAR-4
[56] = tested on: NCI/ADR-RES
[57] = tested on: A549
[58] = tested on: IGROV-1
[59] = tested on: NCI-H522

With `CCN1c2cc(Br)cc3[nH]c(=O)n(c23)CCC1C` (stereo unspecified) the GI50 [1] was 5.48 µM (inactive), the GI50 [2] was 11.5 µM (inactive) and the GI50 [3] was 14.8 µM (inactive). The GI50 [4] was 17.3 µM (inactive), the GI50 [5] was 16 µM (inactive) and the GI50 [6] was 1.49 µM (inactive). The GI50 [7] was 1.43 µM (inactive), the GI50 [8] was 14 µM (inactive) and the GI50 [9] was 18.3 µM (inactive). For the same compound, the GI50 [10] was 19.7 µM (inactive), the GI50 [11] was 17.2 µM (inactive) and the GI50 [12] was 12.3 µM (inactive). The GI50 [13] was 12 µM (inactive), the GI50 [14] was 10.3 µM (inactive) and the GI50 [15] was 17.4 µM (inactive). For the same compound, the GI50 [16] was 19.5 µM (inactive), the GI50 [17] was 15.8 µM (inactive) and the GI50 [18] was 20.2 µM (inactive). For the same compound, the GI50 [19] was 14.4 µM (inactive), the GI50 [20] was 17 µM (inactive) and the GI50 [21] was 15.1 µM (inactive). The GI50 [22] was 19.4 µM (inactive), the GI50 [23] was 21.7 µM (inactive) and the GI50 [24] was 3.46 µM (inactive). The GI50 [25] was 5.16 µM (inactive), the GI50 [26] was 23.2 µM (inactive) and the GI50 [27] was 12.3 µM (inactive). The GI50 [28] was 18 µM (inactive), the GI50 [29] was 15.2 µM (inactive) and the GI50 [30] was 14.6 µM (inactive). The GI50 [31] was 14.3 µM (inactive), the GI50 [32] was 14.9 µM (inactive) and the GI50 [33] was 16.7 µM (inactive). The GI50 [34] was 5.58 µM (inactive), the GI50 [35] was 21.5 µM (inactive) and the GI50 [36] was 15.6 µM (inactive). For the same compound, the GI50 [37] was 14.2 µM (inactive), the GI50 [38] was 15.6 µM (inactive) and the GI50 [39] was 15.9 µM (inactive). The GI50 [40] was 4.18 µM (inactive), the GI50 [41] was 6.85 µM (inactive) and the GI50 [42] was 15.6 µM (inactive). The GI50 [43] was 17.4 µM (inactive), the GI50 [44] was 14.8 µM (inactive) and the GI50 [45] was 11.6 µM (inactive). For the same compound, the GI50 [46] was 11.6 µM (inactive), the GI50 [47] was 11.9 µM (inactive) and the GI50 [48] was 18.7 µM (inactive). For the same compound, the GI50 [49] was 17.2 µM (inactive), the GI50 [50] was 4.89 µM (inactive) and the GI50 [51] was 14.5 µM. For the same compound, the GI50 [52] was 6.56 µM (inactive), the GI50 [53] was 4.32 µM (inactive) and the GI50 [54] was 34.2 µM (inactive). For the same compound, the GI50 [55] was 20 µM (inactive), the GI50 [56] was 5.7 µM (inactive) and the GI50 [57] was 15.1 µM (inactive). For the same compound, the GI50 [58] was 13.9 µM (inactive).
With `COc1cc(/C=N/N=C2NCCCCN2)ccc1O` the GI50 [1] was > 100 µM (inactive), the GI50 [2] was > 100 µM (inactive) and the GI50 [3] was > 100 µM (inactive). For the same compound, the GI50 [4] was > 100 µM (inactive), the GI50 [5] was 61.7 µM (inactive) and the GI50 [6] was > 100 µM (inactive). The GI50 [7] was > 100 µM (inactive), the GI50 [8] was > 100 µM (inactive) and the GI50 [9] was > 100 µM (inactive). For the same compound, the GI50 [10] was 50.2 µM (inactive), the GI50 [11] was > 100 µM (inactive) and the GI50 [12] was > 100 µM (inactive). For the same compound, the GI50 [13] was > 100 µM (inactive), the GI50 [59] was > 100 µM (inactive) and the GI50 [14] was > 100 µM (inactive). For the same compound, the GI50 [15] was > 100 µM (inactive), the GI50 [16] was > 100 µM (inactive) and the GI50 [17] was > 100 µM (inactive). The GI50 [18] was > 100 µM (inactive), the GI50 [19] was > 100 µM (inactive) and the GI50 [20] was > 100 µM (inactive). The GI50 [21] was > 100 µM (inactive), the GI50 [22] was > 100 µM (inactive) and the GI50 [23] was > 100 µM (inactive). For the same compound, the GI50 [24] was > 100 µM (inactive), the GI50 [25] was > 100 µM (inactive) and the GI50 [26] was > 100 µM (inactive). The GI50 [27] was 96.2 µM (inactive), the GI50 [28] was > 100 µM (inactive) and the GI50 [29] was 40 µM (inactive). For the same compound, the GI50 [30] was > 100 µM (inactive), the GI50 [31] was > 100 µM (inactive) and the GI50 [32] was > 100 µM (inactive). For the same compound, the GI50 [33] was > 100 µM (inactive), the GI50 [34] was 58.7 µM (inactive) and the GI50 [35] was > 100 µM (inactive). The GI50 [36] was > 100 µM (inactive), the GI50 [37] was > 100 µM (inactive) and the GI50 [38] was > 100 µM (inactive). The GI50 [39] was > 100 µM (inactive), the GI50 [40] was > 100 µM (inactive) and the GI50 [41] was > 100 µM (inactive). The GI50 [42] was 80 µM (inactive), the GI50 [43] was 53.8 µM (inactive) and the GI50 [44] was > 100 µM (inactive). The GI50 [46] was > 100 µM (inactive), the GI50 [47] was > 100 µM (inactive) and the GI50 [48] was > 100 µM (inactive). For the same compound, the GI50 [49] was > 100 µM (inactive), the GI50 [50] was > 100 µM (inactive) and the GI50 [51] was greater than 100 µM. For the same compound, the GI50 [52] was > 100 µM (inactive), the GI50 [53] was > 100 µM (inactive) and the GI50 [54] was > 100 µM (inactive). The GI50 [55] was > 100 µM (inactive), the GI50 [56] was > 100 µM (inactive) and the GI50 [57] was > 100 µM (inactive). For the same compound, the GI50 [58] was > 100 µM (inactive).
